In patent US9345244B2, “Plant growth regulating compounds” (Syngenta Participations AG, priority 2011, dated 2016):

Tested on: Wheat (Triticum aestivum) seeds of the variety Arina
Test: Wheat assay (plant area and root curliness)
Type: in vivo
Conditions: wheat var. Arina seeds in mini-pouches with 5 mL compound solution; twelve days after sowing/application
Procedure: Two bioassays were developed in order to assay the activity of the compounds of the present invention. In the first assay, the activity of the compound was quantified in beans based on its effect on the elongation of the petiole of the second leaf. In the second assay, the compound's effect on the root growth of wheat was determined.
The test compounds were dissolved in small volumes of dimethyl sulfoxide and diluted to the appropriate concentration with water. Wheat (Triticum aestivum) seeds of the variety Arina were sown in mini-pouches (10.5×9.0 cm) containing 5 mL of the appropriate compound solution. The mini pouches were stored at 17° C. for three days to enable the seeds to germinate. Plants were then stored at 5° C. Twelve days after sowing/application, plants were removed from the mini-pouches and scanned. The effect of the compounds was quantified by determining plant (root and shoot) area and curliness of the roots (curliness is an indicator of brassinosteroid-type activity).

SMILES	curliness of the roots (indicator of brassinosteroid-type activity)
COC(=O)CCC(=O)Nc1ccc(C#N)cn1 [Compound A1, methyl 4-[(5-cyano-2-pyridyl)amino]-4-oxo-butanoate]	curly root phenotype
N#Cc1ccc(NC(=O)CCC(=O)O)nc1 [Compound A2, 4-[(5-cyano-2-pyridyl)amino]-4-oxo-butanoic acid]	curly root phenotype
O=C(O)CCC(=O)Nc1ccc(C(F)(F)F)cn1 [Compound A19, 4-oxo-4-[[5-(trifluoromethyl)-2-pyridyl]amino]butanoic acid]	curly root phenotype
CCOC(=O)CCC(=O)Nc1ccc(C#N)cn1 [Compound A22, Ethyl 4-[(5-cyano-2-pyridyl)amino]-4-oxo-butanoate]	curly root phenotype
CCOc1cc(NC(=O)CCC(=O)OC)ncc1Cl [Compound A31, Methyl 4-[(5-chloro-4-ethoxy-2-pyridyl)amino]-4-oxo-butanoate]	curly root phenotype
CCOc1cc(NC(=O)CCC(=O)O)ncc1Cl [Compound A32, 4-[(5-chloro-4-ethoxy-2-pyridyl)amino]-4-oxo-butanoic acid]	curly root phenotype
CCOc1cc(NC(=O)CCC(=O)OC)ncc1Br [Compound A38, Methyl 4-[(5-bromo-4-ethoxy-2-pyridyl)amino]-4-oxo-butanoate]	curly root phenotype
CCOc1cc(NC(=O)CCC(=O)O)ncc1Br [Compound A39, 4-[(5-bromo-4-ethoxy-2-pyridyl)amino]-4-oxo-butanoic acid]	curly root phenotype

Tested on: not given
Test: not given
Conditions: not given

melting point [°C]	SMILES
161 to 164	COC(=O)CCC(=O)Nc1ccc(C#N)cn1 [Compound A1, methyl 4-[(5-cyano-2-pyridyl)amino]-4-oxo-butanoate]
220 to 221	N#Cc1ccc(NC(=O)CCC(=O)O)nc1 [Compound A2, 4-[(5-cyano-2-pyridyl)amino]-4-oxo-butanoic acid]
215 to 218	N#Cc1cc(I)cnc1NC(=O)CCC(=O)O [Compound A4, 4-[(3-cyano-5-iodo-2-pyridyl)amino]-4-oxo-butanoic acid]
246 to 248	COC(=O)CCC(=O)Nc1ccc(-c2nnn[nH]2)cn1 [Compound A65, Methyl 4-oxo-4-[[5-(1H-tetrazol-5-yl)-2-pyridyl]amino]butanoate]
129	COC(=O)C(C)(C)CC(=O)Nc1ccc(C#N)cn1 [Compound B1, Methyl 4-[(5-cyano-2-pyridyl)amino]-2,2-dimethyl-4-oxo-butanoate]
